# Assay results as given in publication doi:10.1101/737510v1 (biorxiv, 2019).
# What was measured:
# Assay type in all cases: binding
# [1] = target: DCAF15-DDB1-DDA1 with RBM39(Δ150) (Homo sapiens, UniProt Q14498+Q66K64); test: TR-FRET ternary complex recruitment assay
# [2] = target: DCAF15-DDB1(ΔBPB)-DDA1 and RBM39(Δ150) mixture (Homo sapiens, UniProt Q14498+Q66K64); test: isothermal titration calorimetry
# [3] = target: DCAF15-DDB1(ΔBPB)-DDA1 (Homo sapiens, UniProt Q66K64); test: isothermal titration calorimetry
# [4] = target: T1, RBM39(Δ150) (Homo sapiens, UniProt Q14498); test: isothermal titration calorimetry
# T1 sequence (Q14498 151-530): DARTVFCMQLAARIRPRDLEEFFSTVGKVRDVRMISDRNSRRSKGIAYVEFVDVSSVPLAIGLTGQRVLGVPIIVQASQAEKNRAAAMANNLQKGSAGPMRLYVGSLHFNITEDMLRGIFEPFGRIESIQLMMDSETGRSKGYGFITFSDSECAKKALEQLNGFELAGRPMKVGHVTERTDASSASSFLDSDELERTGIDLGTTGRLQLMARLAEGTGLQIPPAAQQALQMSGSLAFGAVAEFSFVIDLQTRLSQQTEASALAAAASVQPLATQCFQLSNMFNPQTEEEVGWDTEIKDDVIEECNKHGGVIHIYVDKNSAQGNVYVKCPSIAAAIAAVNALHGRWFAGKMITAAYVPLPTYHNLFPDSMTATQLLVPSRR
SMILES,EC50 [1] [µM],further results
"NS(=O)(=O)c1ccc(S(=O)(=O)Nc2cccc3cc[nH]c23)cc1 [compound 3, N-(1H-indol-7-yl)benzene-1,4-disulfonamide]",> 50,
"N#Cc1c[nH]c2c(NS(=O)(=O)c3ccc(S(N)(=O)=O)cc3)cccc12 [compound 2, N-(3-cyano-1H-indol-7-yl)benzene-1,4-disulfonamide]",1.21,
NS(=O)(=O)c1ccc(S(=O)(=O)Nc2cccc3c(Cl)c[nH]c23)cc1 [Indisulam],3.4,Kd [2]: 0.187 µM; Kd [3]: ~17 µM; Kd [4]: > 50 µM
"Cc1c[nH]c2c(NS(=O)(=O)c3ccc(S(N)(=O)=O)cc3)cccc12 [compound 1, N-(3-methyl-1H-indol-7-yl)benzene-1,4-disulfonamide]",14.3,

# Now from value to compound, other results behind:
EC50 [1] [µM],SMILES,further results
38.1,"O=S(=O)(Nc1cccc2c(Cl)c[nH]c12)c1ccccc1 [compound 5, N-(3-chloro-1H-indol-7-yl)benzenesulfonamide]",
3.82,"Cc1ccc(NS(=O)(=O)c2ccc(N)cc2)c2[nH]cc(C#N)c12 [compound 6, Compound 6]",
12.3,"Cc1c[nH]c2c(NS(=O)(=O)c3ccc(S(=O)(=O)N(C)C)cc3)cccc12 [compound 4, N^1,N^1-dimethyl-N^4-(3-methyl-1H-indol-7-yl)benzene-1,4-disulfonamide]",
2.38,"Cc1ccc(NS(=O)(=O)c2ccc(CN)cc2)c2[nH]cc(C#N)c12 [compound 7, 4-(aminomethyl)-N-(3-cyano-4-methyl-1H-indol-7-yl)benzenesulfonamide]",
